Results from PubChem BioAssay (NCI).
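Interpolation was linear, between the two tested concentrations surrounding the appropriate level; five concentrations were tested over 48 hours in 96-well plates. The concentration for 50% growth inhibition is given as GI50. TGI: concentration producing complete growth inhibition.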

Experiments:
Assay in all cases: DTP human tumour cell line panel, 48 h
SNB-75 CNS = test system: SNB-75 CNS
SW-620 colon = test system: SW-620 colon
NCI-H460 lung = test system: NCI-H460 lung
HOP-62 NSCLC = test system: HOP-62 NSCLC
UO-31 renal = test system: UO-31 renal
COLO 205 colon = test system: COLO 205 colon
ACHN renal = test system: ACHN renal
SK-MEL-28 melanoma = test system: SK-MEL-28 melanoma
EKVX NSCLC = test system: EKVX NSCLC
A498 renal = test system: A498 renal

Compound COC[C@@H](N=CN1CCc2cc(OC)c(OC)cc2[C@@H]1C)C(C)(C)C has a TGI (SNB-75 CNS) of over 100 µM, a TGI (SW-620 colon) of over 100 µM and a TGI (NCI-H460 lung) of over 100 µM. It also gave a TGI (HOP-62 NSCLC) of over 100 µM, a TGI (UO-31 renal) of over 100 µM and a TGI (COLO 205 colon) of over 100 µM. It also gave a TGI (ACHN renal) of over 100 µM, a TGI (SK-MEL-28 melanoma) of over 100 µM and a TGI (EKVX NSCLC) of over 100 µM.

Work on NC1CCCCC1.[O]=[Ge].[O]=[Ge].[O]=[Ge][OH].[O]=[Ge][OH] yielded a TGI (SNB-75 CNS) of over 100 µM, a TGI (A498 renal) of over 100 µM and a TGI (SW-620 colon) of over 100 µM. For the same compound, the TGI (NCI-H460 lung) was over 100 µM, the TGI (HOP-62 NSCLC) was over 100 µM and the GI50 (UO-31 renal) was over 100 µM. The TGI (UO-31 renal) was over 100 µM, the GI50 (ACHN renal) was over 100 µM and the TGI (ACHN renal) was over 100 µM. For the same compound, the TGI (SK-MEL-28 melanoma) was over 100 µM and the TGI (EKVX NSCLC) was over 100 µM.

COc1cc2c(c(OC)c1OC)-c1ccc(N)c(=O)cc1[C@@H](NC(C)=O)CC2 gave a GI50 (A498 renal) of 0.0297 µM, a GI50 (SW-620 colon) of under 0.01 µM and a TGI (SW-620 colon) of over 100 µM. It also gave a GI50 (NCI-H460 lung) of 0.0294 µM, a GI50 (HOP-62 NSCLC) of 0.0426 µM and a TGI (HOP-62 NSCLC) of over 100 µM. The GI50 (UO-31 renal) was 0.705 µM, the TGI (UO-31 renal) was over 100 µM and the GI50 (COLO 205 colon) was 0.012 µM. It also gave a TGI (COLO 205 colon) of 0.0386 µM, a GI50 (ACHN renal) of 0.152 µM and a TGI (ACHN renal) of over 100 µM. For the same compound, the GI50 (SK-MEL-28 melanoma) was over 100 µM, the TGI (SK-MEL-28 melanoma) was over 100 µM and the GI50 (EKVX NSCLC) was 0.0808 µM. The TGI (EKVX NSCLC) was over 100 µM.

Compound NCCCOCC(=O)O has a TGI (SNB-75 CNS) of over 100 µM, a TGI (SW-620 colon) of over 100 µM and a TGI (UO-31 renal) of over 100 µM. The TGI (COLO 205 colon) was over 100 µM, the TGI (ACHN renal) was over 100 µM and the TGI (SK-MEL-28 melanoma) was over 100 µM. The TGI (EKVX NSCLC) was over 100 µM.

Compound O=C(Nc1ccc(Cl)cc1Cl)C(=O)C(C(=O)c1ccc2ccccc2c1)C1OC(=O)c2ccccc21 (stereo not given) has a TGI (A498 renal) of 20.2 µM, a TGI (SW-620 colon) of 24.9 µM and a TGI (NCI-H460 lung) of 17.3 µM. For the same compound, the TGI (HOP-62 NSCLC) was 27.8 µM, the TGI (UO-31 renal) was 27 µM and the TGI (COLO 205 colon) was 57 µM. It also gave a TGI (ACHN renal) of over 100 µM, a TGI (SK-MEL-28 melanoma) of 15.3 µM and a TGI (EKVX NSCLC) of 35.9 µM.

With COC(=O)C(C(=O)C(=O)Nc1ccc(C(F)(F)F)cc1[N+](=O)[O-])c1csc(-n2nc(-c3ccccc3)cc2-c2ccccc2)n1 (stereo not given) the TGI (SNB-75 CNS) was over 100 µM, the TGI (A498 renal) was over 100 µM and the TGI (SW-620 colon) was over 100 µM. The TGI (NCI-H460 lung) was over 100 µM, the TGI (HOP-62 NSCLC) was over 100 µM and the TGI (UO-31 renal) was over 100 µM. It also gave a TGI (COLO 205 colon) of over 100 µM.

CC1(C)C(=O)C(C)(C)C1=NN gave a TGI (SNB-75 CNS) of over 100 µM, a TGI (SW-620 colon) of over 100 µM and a TGI (NCI-H460 lung) of over 100 µM. The TGI (HOP-62 NSCLC) was over 100 µM, the TGI (UO-31 renal) was over 100 µM and the TGI (COLO 205 colon) was over 100 µM. For the same compound, the TGI (ACHN renal) was over 100 µM and the TGI (SK-MEL-28 melanoma) was over 100 µM.

With CCOC(=O)C1=C(C(=O)c2ccc(C)cc2)C(c2cccc([N+](=O)[O-])c2)C(C(=O)c2ccc(C)cc2)=C(C(=O)OCC)N1 the TGI (SNB-75 CNS) was over 100 µM, the TGI (SW-620 colon) was 27.1 µM and the TGI (NCI-H460 lung) was over 100 µM. It also gave a TGI (HOP-62 NSCLC) of 41 µM, a TGI (UO-31 renal) of 29.5 µM and a TGI (COLO 205 colon) of 4.03 µM. For the same compound, the TGI (ACHN renal) was 28.3 µM, the TGI (SK-MEL-28 melanoma) was 34.2 µM and the TGI (EKVX NSCLC) was 47.1 µM.

With O=C(c1ccccc1)C1CCCCN1C(=O)c1ccccc1 (stereo not given) the TGI (SNB-75 CNS) was over 100 µM, the TGI (A498 renal) was over 100 µM and the TGI (SW-620 colon) was over 100 µM. For the same compound, the TGI (NCI-H460 lung) was over 100 µM, the TGI (HOP-62 NSCLC) was over 100 µM and the TGI (UO-31 renal) was over 100 µM. It also gave a TGI (COLO 205 colon) of over 100 µM, a TGI (ACHN renal) of over 100 µM and a TGI (SK-MEL-28 melanoma) of over 100 µM.
